Source: article PMC10901950, “Neuroprotective and Anti-inflammatory Effects of Rubiscolin-6 Analogs with Proline Surrogates in Position 2” (Neurochemical Research, 2023)
Numbered stars: 1 amine (or outer) side, 2 acyl side, 3 side chain; on linkers, the order of the positions; unused ones are H or OH. Square brackets hold non-standard residues; d marks the D form. Ends that are not written are not given here. Peptide text beside a SMILES is read from it. Nip(3R) = O=C([C@@H]1CCCN([*:1])C1)[*:2]; Dmt = Cc1cc(O)cc(C)c1C[C@H](N)C(=O)O; Inp = O=C(O)C1CCNCC1

Tests used:
[1] = test system: LPS-stimulated RAW 264.7 cells; assay: Intracellular ROS formation in LPS-stimulated RAW 264.7 cells; assay type: cell-based, mouse; details: LPS-stimulated, 24 h; for decrease of ROS levels: peptides 0.1-10 µM
Method: The cytotoxic and anti-inflammatory effects of peptides on RAW 264.7 cells were estimated using MTT assay. Cells were incubated with peptides (0.1–10 µM) for 24 h to assess their cytoprotective activity. In the anti-inflammatory model, RAW 264.7 cells were exposed to LPS (Millipore Sigma, Darmstadt, Germany) at 1 µg/mL in the absence/presence of peptide at non-toxic concentrations (0.1–10 µM). Then, the MTT reagent was added to wells, and cells were incubated for 1.5 h at 37 °C. After this time, MTT was removed, 100 µL DMSO was added, and the resulting absorbance was read in a microplate reader (Synergy 2 BioTek Microplate Reader, Winooski, VT, USA) at 570 nm.
The detection of ROS generated in injured cells was evaluated using the 5(6)-carboxy-2ʹ,7ʹ-dichlorofluorescein diacetate (carboxy-H2DCFDA) reagent (Invitrogen, Bleiswijk, Netherlands). After incubation, cells were washed with ice-cold Phosphate-Buffer Saline (PBS). Then, the carboxyl-H2DCFDA (100 µL, 20 µM) reagent was added and incubated for 1 h at 37 °C. Finally, the fluorescence intensity was measured at wavelengths of […], and ROS levels were presented in percentage of control (non-treated cells).

δ-opioid receptor [2] = target: T1, δ-opioid receptor (Homo sapiens, UniProt P41143); assay: Calcium mobilisation assay, CHO cells with GαqG66Di5; assay type: cell-based; set-up: expressed in transfected cells; host or cells: CHO cells; gift from Prof; Girolamo Calo, University of Padova; details: for δ-opioid receptors pEC50 (CL95%): agonist potency, mean ± SEM of three experiments in triplicate; for δ-opioid receptors pEC50 (CL95%) / δ-opioid receptors α ± SEM: Inactive = inactive as an agonist up to 1 µM; for δ-opioid receptors α ± SEM: intrinsic activity, Emax ratio to DPDPE; for EC50: read-out: δ-opioid receptors pEC50 (CL95%) (converted)
Method: (§1) Chinese Hamster Ovary (CHO) cells stably co-expressing human recombinant µ- or κ-opioid receptors and the C-terminally modified Gαqi5, and CHO cells co-expressing the human recombinant δ-opioid receptors and the GαqG66Di5 chimeric protein (a generous gift from Prof. Girolamo Calo, University of Padova, Italy) were used in calcium mobilization assay, that was performed as reported in detail elsewhere. Cells were cultured in Dulbecco’s Modified Eagle’s Medium (DMEM)/Ham’s F12 (1:1) culture medium supplemented with 10% (v/v) Fetal Bovine Serum (FBS), penicillin (100 IU/mL), streptomycin (100 µg/mL), L-glutamine (2 mM), fungizone (1 µg/mL), geneticin (G418; 200 µg/mL) and hygromycin B (100 µg/mL). Cell cultures were kept at 37 °C in 5% CO2/humidified air. When confluence was reached (3–4 days), cells were seeded at a density of 50,000 cells/well into 96-well black, clear-bottom plates. After 24 h incubation, the cells were loaded with a medium supplemented with probenecid (2.5 mM), calcium-sensitive fluorescent dye Fluo-4 AM (3 µM), pluronic acid (0.01%), and HEPES (20 mM) and kept for 30 min at 37 °C. Then, the loading solution was aspirated, and 100 µL/well of assay buffer (HBSS supplemented with 20 mM HEPES, 2.5 mM probenecid, and 500 µM Brilliant Black) was added.
(§2) The tested peptides were diluted in the HBSS/HEPES (20 mM) buffer (containing 0.005% BSA) and placed into 96-well plates. The range of concentrations tested was 10 µM–1 × 10^–6 µM. After placing both plates (cell culture and compound plate) into the FlexStation II (Molecular Device, Union City, CA, USA), the online additions were carried out in a volume of 50 µL/well and the fluorescence changes were measured.
(§3) Concentration–response curves were fitted with the four-parameter logistic, nonlinear regression model: Effect=baseline+Emax- baseline/1+10^logEC50- Xn where X is the agonist concentration and n is the Hill coefficient. Ligand efficacies, expressed as the intrinsic activity (α), were calculated as the Emax ratio of the tested compound and the standard agonist.

δ-opioid receptor [3] = target: T1, δ-opioid receptor; assay: Opioid receptor binding assay, [3H][Ile5,6]deltorphin-2 competition; set-up: purchased; host or cells: CHO cells (membranes); details: CHO cell membranes, 0.5 nM [3H][Ile5,6]deltorphin-2, 25 °C, 120 min; mean ± SEM of four experiments in duplicate; read-out: Ki DOR
Method: (§4) The opioid receptor binding assays were performed using the modified method described elsewhere. Briefly, commercial membranes of Chinese Hamster Ovary (CHO) cells transfected with human opioid receptors were used. The binding affinities for µ-, δ- and κ-opioid receptors were determined by radioligand competition analysis using [^3H]DAMGO, [^3H]deltorphin-2, and [^3H]U-69593, respectively. Membranes were incubated at 25 °C for 120 min with appropriate concentrations of a tested peptide in the presence of 0.5 nM radioligand in a total volume of 0.5 mL of 50 mM Tris/HCl (pH 7.4) containing bovine serum albumin (BSA) (1 mg/mL), bacitracin (50 µg/mL), bestatin (30 µM), and captopril (10 µM). Non-specific binding was determined in the presence of 1 µM naloxone. Incubations were terminated by the rapid filtration through the GF/B Whatman (Brentford, UK) glass fibre strips (pre-soaked for 2 h in 0.5% (v/v) […]) using Millipore Sampling Manifold (Billerica, MA, USA). The filters were washed thrice with 4 mL of ice-cold Tris buffer solution. Packard Tri-Carb 2100 TR liquid scintillation counter (Ramsey, MN, USA) was used to measure the bound radioactivity after overnight extraction of the filters in 4 mL of a Perkin Elmer Ultima Gold scintillation fluid (Wellesley, MA, USA). The data were analyzed by a nonlinear least square regression analysis computer program Graph Pad PRISM 6.0 (Graph Pad Software Inc., San Diego, CA, USA). The values of the inhibitory constants (Ki) were calculated according to the equation of Cheng and Prusoff.
(§5) The ability of R-6 and its new analogs to bind to µ-, δ- and κ-opioid receptors was determined by competitive binding assays against [^3H]DAMGO, [^3H][Ile^5,6]deltorphin-2 and [^3H]U-69593, respectively, using membranes of CHO cells transfected with opioid receptors and are summarized in Table 2.

µ-opioid receptor [4] = target: T2, µ-opioid receptor (Homo sapiens, UniProt P35372); assay: Calcium mobilisation assay, CHO cells with Gαqi5; assay type: cell-based; set-up: expressed in transfected cells; gift from Prof; Girolamo Calo, University of Padova; details: for µ-opioid receptors α ± SEM: intrinsic activity, Emax ratio to Dermorphin; for µ-opioid receptors α ± SEM / µ-opioid receptors pEC50 (CL95%): Inactive = inactive as an agonist up to 1 µM; for EC50: read-out: µ-opioid receptors pEC50 (CL95%) (converted); for µ-opioid receptors pEC50 (CL95%): agonist potency, mean ± SEM of three experiments in triplicate
Method: as §1, §2, §3

µ-opioid receptor [5] = target: T2, µ-opioid receptor; assay: Opioid receptor binding assay, [3H]DAMGO competition; set-up: purchased; host or cells: CHO cells (membranes); details: CHO cell membranes, 0.5 nM [3H]DAMGO, 25 °C, 120 min; mean ± SEM of four experiments in duplicate; read-out: Ki MOR
Method: as §4, §5

κ-opioid receptor = target: T3, κ-opioid receptor (Homo sapiens, UniProt P41145); assay: Opioid receptor binding assay, [3H]U-69593 competition; details: CHO cell membranes, 0.5 nM [3H]U-69593, 25 °C, 120 min; mean ± SEM of four experiments in duplicate; read-out: Ki KOR
T3 construct: purchased; host or cells: CHO cells (membranes)
Method: as §4, §5

With `Cc1cc(O)cc(C)c1C[C@H](N)C(=O)N1CCC[C@H]1C(=O)N[C@@H](CC(C)C)C(=O)N[C@@H](CC(=O)O)C(=O)N[C@@H](CC(C)C)C(=O)N[C@@H](Cc1ccccc1)C(=O)O` [analog 1, Dmt-Pro-Leu-Asp-Leu-Phe-OH] (H-[Dmt]PLDLF-OH) the “decrease of ROS levels” value ([1]; DCFH-DA) was at most 40%, the “δ-opioid receptors pEC50 (CL95%)” value (δ-opioid receptor [2]) was “Inactive” and the “δ-opioid receptors α ± SEM” value (δ-opioid receptor [2]) was “Inactive”. For the same compound, the Ki (δ-opioid receptor [3]) was 91.7 ± 29.7 nM, the “µ-opioid receptors α ± SEM” value (µ-opioid receptor [4]) was 0.22 ± 0.05 and the EC50 (µ-opioid receptor [4]) was 2000 nM. For the same compound, the Ki (µ-opioid receptor [5]) was 599 ± 84.5 nM and the Ki (κ-opioid receptor) was over 1000 nM.

For `CC(C)C[C@H](NC(=O)[C@@H]1CCCN(C(=O)[C@@H](N)Cc2ccc(O)cc2)C1)C(=O)N[C@@H](CC(=O)O)C(=O)N[C@@H](CC(C)C)C(=O)N[C@@H](Cc1ccccc1)C(=O)O` [analog 2, Tyr-(R)-Nip-Leu-Asp-Leu-Phe-OH] (H-Y[Nip(3R)]LDLF-OH), the “decrease of ROS levels” value ([1]; DCFH-DA) was at most 40%, the “δ-opioid receptors pEC50 (CL95%)” value (δ-opioid receptor [2]) was “Inactive” and the “δ-opioid receptors α ± SEM” value (δ-opioid receptor [2]) was “Inactive”. For the same compound, the Ki (δ-opioid receptor [3]) was over 1000 nM, the “µ-opioid receptors pEC50 (CL95%)” value (µ-opioid receptor [4]) was “Inactive” and the “µ-opioid receptors α ± SEM” value (µ-opioid receptor [4]) was “Inactive”. The Ki (µ-opioid receptor [5]) was over 1000 nM and the Ki (κ-opioid receptor) was over 1000 nM.

`CC(C)C[C@H](NC(=O)C1CCN(C(=O)[C@@H](N)Cc2ccc(O)cc2)CC1)C(=O)N[C@@H](CC(=O)O)C(=O)N[C@@H](CC(C)C)C(=O)N[C@@H](Cc1ccccc1)C(=O)O` [analog 3, Tyr-Inp-Leu-Asp-Leu-Phe-OH] (H-Y[Inp]LDLF-OH) was tested, and the “effect on ROS levels” value ([1]; peptide 0.1 µM) was “protective effect”, the “δ-opioid receptors pEC50 (CL95%)” value (δ-opioid receptor [2]) was “Inactive” and the “δ-opioid receptors α ± SEM” value (δ-opioid receptor [2]) was “Inactive”. For the same compound, the Ki (δ-opioid receptor [3]) was 734 ± 31.3 nM, the “µ-opioid receptors pEC50 (CL95%)” value (µ-opioid receptor [4]) was “Inactive” and the “µ-opioid receptors α ± SEM” value (µ-opioid receptor [4]) was “Inactive”. It also gave a Ki (µ-opioid receptor [5]) of over 1000 nM and a Ki (κ-opioid receptor) of over 1000 nM.

For `Cc1cc(O)cc(C)c1C[C@H](N)C(=O)N1CCC[C@@H](C(=O)N[C@@H](CC(C)C)C(=O)N[C@@H](CC(=O)O)C(=O)N[C@@H](CC(C)C)C(=O)N[C@@H](Cc2ccccc2)C(=O)O)C1` [analog 4, Dmt-(R)-Nip-Leu-Asp-Leu-Phe-OH] (H-[Dmt][Nip(3R)]LDLF-OH), the “decrease of ROS levels” value ([1]; DCFH-DA) was at most 40%, the “δ-opioid receptors pEC50 (CL95%)” value (δ-opioid receptor [2]) was “Inactive” and the “δ-opioid receptors α ± SEM” value (δ-opioid receptor [2]) was “Inactive”. For the same compound, the Ki (δ-opioid receptor [3]) was over 1000 nM, the “µ-opioid receptors pEC50 (CL95%)” value (µ-opioid receptor [4]) was “Inactive” and the “µ-opioid receptors α ± SEM” value (µ-opioid receptor [4]) was “Inactive”. For the same compound, the Ki (µ-opioid receptor [5]) was over 1000 nM and the Ki (κ-opioid receptor) was over 1000 nM.

With `Cc1cc(O)cc(C)c1C[C@H](N)C(=O)N1CCC(C(=O)N[C@@H](CC(C)C)C(=O)N[C@@H](CC(=O)O)C(=O)N[C@@H](CC(C)C)C(=O)N[C@@H](Cc2ccccc2)C(=O)O)CC1` [analog 5, Dmt-Inp-Leu-Asp-Leu-Phe-OH] (H-[Dmt][Inp]LDLF-OH) the “effect on ROS levels” value ([1]; peptide 0.1 µM) was “protective effect”, the “δ-opioid receptors α ± SEM” value (δ-opioid receptor [2]) was 0.39 ± 0.02 and the EC50 (δ-opioid receptor [2]) was 22400 nM. For the same compound, the Ki (δ-opioid receptor [3]) was 13.1 ± 3.08 nM, the “µ-opioid receptors α ± SEM” value (µ-opioid receptor [4]) was 0.11 ± 0.04 and the EC50 (µ-opioid receptor [4]) was 7590 nM. It also gave a Ki (µ-opioid receptor [5]) of 712 ± 101 nM and a Ki (κ-opioid receptor) of over 1000 nM.

`CC(C)C[C@H](NC(=O)C1CCN(C(=O)[C@@H](N)Cc2ccc(O)cc2)CC1)C(=O)N[C@@H](CC(=O)O)C(=O)N[C@@H](CC(C)C)C(=O)N[C@@H](Cc1ccccc1)C(N)=O` [analog 7, Tyr-Inp-Leu-Asp-Leu-Phe-NH2] (H-Y[Inp]LDLF-NH2) was tested, and the “reduction of ROS levels” value ([1]; peptide 0.1 µM, DCFH-DA) was “about 50%”, the “δ-opioid receptors pEC50 (CL95%)” value (δ-opioid receptor [2]) was “Inactive” and the “δ-opioid receptors α ± SEM” value (δ-opioid receptor [2]) was “Inactive”. The Ki (δ-opioid receptor [3]) was 773 ± 137 nM, the “µ-opioid receptors pEC50 (CL95%)” value (µ-opioid receptor [4]) was “Inactive” and the “µ-opioid receptors α ± SEM” value (µ-opioid receptor [4]) was “Inactive”. It also gave a Ki (µ-opioid receptor [5]) of over 1000 nM and a Ki (κ-opioid receptor) of over 1000 nM.

For YPLDLF [R-6, rubiscolin-6], the “decrease of ROS levels” value ([1]; DCFH-DA) was at most 40%, the EC50 (δ-opioid receptor [2]) was 5620 nM and the Ki (δ-opioid receptor [3]) was 11.5 ± 2.25 nM. For the same compound, the “µ-opioid receptors pEC50 (CL95%)” value (µ-opioid receptor [4]) was “Inactive”, the “µ-opioid receptors α ± SEM” value (µ-opioid receptor [4]) was “Inactive” and the Ki (µ-opioid receptor [5]) was over 1000 nM. For the same compound, the Ki (κ-opioid receptor) was over 1000 nM.

For “YPLDLF-NH2 [analog 6, Tyr-Pro-Leu-Asp-Leu-Phe-NH2]”, the “δ-opioid receptors pEC50 (CL95%)” value (δ-opioid receptor [2]) was “Inactive”, the “δ-opioid receptors α ± SEM” value (δ-opioid receptor [2]) was “Inactive” and the Ki (δ-opioid receptor [3]) was over 1000 nM. The “µ-opioid receptors pEC50 (CL95%)” value (µ-opioid receptor [4]) was “Inactive”, the “µ-opioid receptors α ± SEM” value (µ-opioid receptor [4]) was “Inactive” and the Ki (µ-opioid receptor [5]) was over 1000 nM. It also gave a Ki (κ-opioid receptor) of over 1000 nM.
